Data as given in publication PMC6331850, “Evaluation of the Cytotoxicity of Structurally Correlated p-Menthane Derivatives” (Molecules, 2015).
Values after ≈ are worked out from the molar mass of the structure shown.

What was measured:
[1] = test system: HCT-116 (colon carcinoma); assay: MTT cytotoxicity assay, HCT-116; type: cell-based; details: Homo sapiens, 25 μg/mL, 72 h incubation, mean of three independent experiments, read-out: Cell growth inhibition percentage, HCT-116 IG%
Procedure: (§1) The cytotoxicity of the 18 compounds was tested against OVCAR-8 (ovarian adenocarcinoma), HCT-116 (colon carcinoma), SF-295 (glioblastoma), and HL-60 (leukemia) human cancer cell lines, all obtained from the National Cancer Institute, Bethesda, MD, USA. Cells were grown in RPMI-1640 medium supplemented with 10% fetal bovine serum, 2 mM glutamine, 100 µg/mL streptomycin, and 100 U/mL penicillin, and incubated at 37 °C in a 5% CO2 atmosphere.
(§2) Tumor cell growth was determined by the ability of living cells to reduce the yellow dye 3-(4,5-dimethyl-2-thiazolyl)-2,5-diphenyl-2H-tetrazolium bromide (MTT; Sigma Chemical Co., St. Louis, MO, USA) to a purple formazan product, as described by Mossman. For all experiments, cells were seeded in 96-well plates (0.1 × 10^6 cells/mL in 100 μL medium). After 24 h, the 18 compounds (25 μg/mL), were dissolved in 0.7% dimethyl sulfoxide (DMSO), and were added to each well (three independent experiments, performed in triplicate). Then, the cells were incubated for 72 h at 37 °C in a 5% CO2 atmosphere. The experiment was performed as three independent experiments, using DMSO at 1%, and doxorubicin at […] as negative and positive controls, respectively. Doxorubicin, purity >98%; Sigma Chemical Co.).
(§3) At the end of incubation, the plates were centrifuged, and the medium was replaced by fresh medium (150 μL) containing 0.5 mg/mL MTT. Three hours later, the formazan product was dissolved in 150 μL DMSO, and absorbance was measured using a multiplate reader (DTX 880 Multimode Detector, Beckman Coulter Inc., Packard, ON, Canada). The treatment effects were expressed as the percentage of control absorbance of reduced dye at 595 nm. All absorbance values were converted into a cell growth inhibition percentage (GI%) by the following formula: [GI% = 100 − [(T/C) × 100%] (1) where C is the absorbance for the negative control, and T is the absorbance in the presence of the tested compound. […]

SF-295 (glioblastoma) = assay: MTT cytotoxicity assay, SF-295; type: cell-based; details: Homo sapiens, 25 μg/mL, 72 h incubation, mean of three independent experiments, read-out: Cell growth inhibition percentage, SF-295 IG%
Procedure: as §1, §2, §3

[2] = test system: OVCAR-8, HCT-116, and SF-295 human tumor cell lines; assay: MTT cytotoxicity assay, range over the three tumor cell lines; type: cell-based; details: for inhibition at 25 µg/mL: read-out: GI, range over the three cell lines
Procedure: as §1, §2
At the end of incubation, the plates were centrifuged, and the medium was replaced by fresh medium (150 μL) containing 0.5 mg/mL MTT. Three hours later, the formazan product was dissolved in 150 μL DMSO, and absorbance was measured using a multiplate reader (DTX 880 Multimode Detector, Beckman Coulter Inc., Packard, ON, Canada). The treatment effects were expressed as the percentage of control absorbance of reduced dye at 595 nm. All absorbance values were converted into a cell growth inhibition percentage (GI%) by the following formula: [GI% = 100 − [(T/C) × 100%] (1) where C is the absorbance for the negative control, and T is the absorbance in the presence of the tested compound.
The compounds that caused greater degree of cell growth inhibition and which have not been described in the literature for cytotoxic activity against tumor cell lines were evaluated for their median inhibitory concentration able to induce 50% of maximal effect (IC50). […] In addition, the IC50 was determined against HL-60 only for the most cytotoxic compound 16.

[3] = test system: OVCAR-8 (ovarian adenocarcinoma); assay: MTT cytotoxicity assay, OVCAR-8; type: cell-based; details: Homo sapiens, 25 μg/mL, 72 h incubation, mean of three independent experiments, read-out: Cell growth inhibition percentage, OVCAR-8 IG%
Procedure: as §1, §2, §3

HL-60 (leukemia) = assay: MTT cytotoxicity assay, HL-60; type: cell-based; details: Homo sapiens, 72 h incubation, read-out: IC50 (95% confidence interval), HL-60
Procedure: as §1
Tumor cell growth was determined by the ability of living cells to reduce the yellow dye 3-(4,5-dimethyl-2-thiazolyl)-2,5-diphenyl-2H-tetrazolium bromide (MTT; Sigma Chemical Co., St. Louis, MO, USA) to a purple formazan product, as described by Mossman. […]
as §3

HL-60 cells [4] = assay: Morphological analysis by fluorescence microscopy (acridine orange/ethidium bromide); type: cell-based, human; details: 24 h
Procedure: HL-60 cells were pelleted and re-suspended in 20 µL of PBS. Then, 1 µL of aqueous acridine orange/ethidium bromide solution (AO/EB, 100 µg/mL) was added, and the cells were observed under a fluorescence microscope. Three hundred cells were counted per sample and classified as viable, apoptotic or necrotic.

HL-60 cells [5] = assay: Morphological analysis with hematoxylin-eosin staining; type: cell-based, human; details: 0.32, 0.64, 1.28 µg/mL; 24 h incubation
Procedure: For morphological cell analysis, we used hematoxylin-eosin and examined using light microscopy. HL-60 cells were seeded (0.3 × 10^6 cells/mL) in the absence or presence of different concentrations of compound 16 (0.32, 0.64 and 1.28 µg/mL). After an incubation period of 24 h, 50 µL of cell suspension were transferred to cytospin slides, fixed with metanol for 60 s, and stained with hematoxylin-eosin [43].

HL-60 cells [6] = assay: Cell viability, trypan blue dye exclusion test; type: cell-based, human; details: 0.32, 0.64, 1.28 µg/mL; 24 h incubation
Procedure: The cell viability was determined by the trypan blue dye exclusion test. HL-60 cells were seeded (0.3 × 10^6 cells/mL) in absence or presence of different concentrations of compound 16 (0.32, 0.64, and 1.28 µg/mL). After the incubation period of 24 h, 90 µL were removed from the cell suspension and added to 10 µL of trypan blue. Viable and non-viable cells were differentiated and counted in a Neubauer chamber.

mouse erythrocytes = assay: Hemolytic assay; type: cell-based; details: up to highest tested concentration 500 μg/mL; data not shown
Procedure: The test was performed in 96-well plates using a 2% mouse erythrocyte suspension in 0.85% NaCl containing 10 mm CaCl2, following the method as described by Jimenez and collaborators. Various concentrations of compound 16 (0–500 µg/mL) were added to the suspension of red blood cells obtained from mice according to methodology adapted from Kang and collaborators, Pita and collaborators, and Bezerra and collaborators. The tubes with the compound 16 erythrocyte mixtures were incubated on a mixer for 60 min and then centrifuged at 3000 rpm for 5 min. […] After incubation at room temperature for 30 min and centrifugation, the supernatant was removed and the liberated hemoglobin was measured spectrophotometrically as the absorbance at 540 nm.

[7] = Homo sapiens, 72 h, 25 µg/mL, MTT, 72 h, HCT-116, OVCAR-8, SF-295

Row | Compound | inhibition at 25 µg/mL [1] [%] | inhibition at 25 µg/mL (SF-295 (glioblastoma)) [%] | inhibition at 25 µg/mL [2, 7] [%] | inhibition at 25 µg/mL [3] [%] | other results
1 | C=C(C)[C@@H]1CCC2(C)OC2C1 (single isomer, unassigned; (+)) [Compound 12, (+)-Limonene 1,2-epoxide] | 73.1 | 58.5 | < 50 | 93.1 | fold more cytotoxic than 5 (GI ratio) ([2]; compared with (−)-carvone epoxide (5), 25 µg/mL): 2.5- to 11 fold
2 | CC1=CC[C@@H](C(C)(C)O)CC1O (single isomer, unassigned; (-)) [Compound 13, (−)-Sobrerol] | 9.78 | 34.2 |  | 41.4 | 
3 | CC1([C@@H]2CC=C(C=O)CC2)CO1 (single isomer, unassigned; (-)) [Compound 16, (−)-Perillaldehyde 8,9-epoxide] | 98.6 | 99.9 | 96.3 to 99.9 | 96.3 | IC50 (HL-60 (leukemia)): 0.64 µg/mL (≈ 3.85 µM); IC50 ([2]; Homo sapiens, MTT, 72 h, HCT-116, OVCAR-8, SF-295): 1.03 to 1.75 µg/mL (≈ 6.2 to 10.5 µM); cell death process, three concentrations tested (HL-60 cells [4]; 0.32, 0.64, 1.28 µg/mL, Figures 3 and 4): cell death by apoptosis; cell morphology, acridine orange/ethidium bromide (HL-60 cells [4]; 0.32, 0.64, 1.28 µg/mL, concentration-dependent, p < 0.05): morphology consistent with apoptosis and necrosis; cell death process at the higher doses (HL-60 cells [4]; doses of 0.64 and 1.28): necrotic cell death; cell morphology, hematoxylin-eosin (HL-60 cells [5]): morphology consistent with apoptosis; effect on number of viable / non-viable cells (HL-60 cells [6]): reduction in the number of viable cells; hemolysis (lysis of mouse erythrocytes) (mouse erythrocytes): not hemolytic
4 | C=C(C)[C@@H]1CC=C(C)C(=O)C1 [Compound 1, (−)-Carvone] | 11.9 | 12.3 |  | 2.28 | 
5 | C=C(C)[C@H]1CC=C(C)C(=O)C1 [Compound 2, (+)-Carvone] | 46.1 | 34.4 | < 50 | 48.1 | 
6 | CC1=CC[C@@H](C(C)(C)O)CC1=O [Compound 3, (−)-8-Hydroxycarvotanacetone] | 75.2 | 61.6 | 61.6 to 94 | 94 | GI, range over the three cell lines ([2]; 25 µg/mL, MTT, 72 h, HCT-116, OVCAR-8, SF-295): 61.59% to 94.01%
7 | CC1=CC[C@H](C(C)(C)O)CC1=O [Compound 4, (+)-8-Hydroxycarvotanacetone] | 4.76 | 16.4 |  | 3.12 | 
8 | C=C(C)[C@@H]1CC(=O)[C@@]2(C)O[C@H]2C1 [Compound 5, (−)-Carvone epoxide] | 29.2 | 10.9 |  | 8.21 | 
9 | C=C(C)[C@@H]1C[C@H](O)[C@]2(C)O[C@@H]2C1 [Compound 6, (+)-Carveol epoxide] | 12.4 | 35.4 |  | 4.58 | 
10 | C=C(C)[C@@H]1CC=C(C)[C@H](O)C1 [Compound 7, (−)-cis-carveol] | 9 | 21.2 |  | 3.61 | 
11 | CC(=O)OC(C)(C)[C@@H]1CC=C(C)C(=O)C1 [Compound 8, (−)-8-Acetoxycarvotanacetone] | 10.4 | 30.5 |  | 1.62 | 
12 | CC(C)=C1CC[C@@H](C)CC1=O [Compound 9, (+)-Pulegone] | 10.2 | 27.4 |  | 14.4 | 
13 | C[C@@H]1CCC2(OC2(C)C)C(=O)C1 (stereo partly drawn) [Compound 10, (R)-pulegone oxide] | 43.2 | 16 |  | 17.6 | 
14 | C=C(C)[C@@H]1CC[C@@H](C)CC1=O [Compound 11, (−)-trans-isopulegone] | 19 | 7.56 |  | 5.98 | 
15 | C=C(C)[C@@H]1CC=C(CO)CC1 [Compound 14, (S)-(−)-perillyl alcohol] | 95.8 | 90.9 | 90.9 to 95.8 | 91.7 | 
16 | C=C(C)[C@@H]1CC=C(C=O)CC1 [Compound 15, (−)-Perillaldehyde] | 83 | 59.3 | 59.3 to 83 | 70.2 | 
17 | C=C(C)[C@@H]1CC=C(COC(C)=O)CC1 [Compound 17, (−)-Perillyl acetate] | 14.2 | 16.4 |  | 3.06 | 
18 | C=C(C)[C@@H]1CC=C(COC(=O)c2ccccc2)CC1 [Compound 18, (S)-perillyl benzoate] | 5.02 | 4.53 |  | 2.86 | 
19 | COc1cccc2c1C(=O)c1c(O)c3c(c(O)c1C2=O)C[C@@](O)(C(=O)CO)C[C@@H]3O[C@H]1C[C@H](N)[C@H](O)[C@H](C)O1 [Doxorubicin, reference compound] | 99.2 | 99.6 |  | 100 | 
